Activity calls are given as the source filed them.
Tests used:
[1] = target: T1, Coagulation factor XII (Homo sapiens, UniProt P00748); format: functional;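 note: activated factor XIIa alpha cleaving a fluorogenic AMC peptide substrate; inhibitor potency from loss of enzyme activity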
T1 sequence (P00748 whole entry): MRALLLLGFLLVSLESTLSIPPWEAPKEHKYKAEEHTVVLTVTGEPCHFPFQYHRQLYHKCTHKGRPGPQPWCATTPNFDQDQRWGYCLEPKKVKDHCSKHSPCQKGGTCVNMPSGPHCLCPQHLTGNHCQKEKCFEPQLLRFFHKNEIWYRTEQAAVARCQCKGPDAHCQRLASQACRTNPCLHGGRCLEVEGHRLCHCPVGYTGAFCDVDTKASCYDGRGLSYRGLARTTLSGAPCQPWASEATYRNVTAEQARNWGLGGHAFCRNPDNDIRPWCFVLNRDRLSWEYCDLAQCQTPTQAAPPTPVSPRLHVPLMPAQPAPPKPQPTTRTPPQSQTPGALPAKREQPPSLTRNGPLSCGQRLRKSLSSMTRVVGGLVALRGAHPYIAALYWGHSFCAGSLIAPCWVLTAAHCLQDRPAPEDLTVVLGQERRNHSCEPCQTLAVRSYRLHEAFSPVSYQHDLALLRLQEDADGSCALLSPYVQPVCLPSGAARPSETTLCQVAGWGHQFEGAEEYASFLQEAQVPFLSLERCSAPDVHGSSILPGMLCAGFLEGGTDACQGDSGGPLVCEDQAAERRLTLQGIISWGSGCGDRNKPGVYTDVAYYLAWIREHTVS

[2] = target: T2, Ubiquitin-conjugating enzyme E2 N (Homo sapiens, UniProt P61088); format: functional;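 note: Dose-response confirmation in a TR-FRET assay detecting UBC13-driven polyubiquitin chain formation, inhibition measured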
T2 sequence (P61088 whole entry): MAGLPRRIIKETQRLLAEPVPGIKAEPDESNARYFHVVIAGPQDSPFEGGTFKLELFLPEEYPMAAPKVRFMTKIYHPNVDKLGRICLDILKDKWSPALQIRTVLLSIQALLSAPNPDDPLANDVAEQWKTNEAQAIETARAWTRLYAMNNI

[3] = target: T3, Fatty acid synthase (Homo sapiens, UniProt P49327); test: FAS thioesterase domain inhibitors, dose response, biochemical, kinetic fluorescence intensity (AID 624326); format: functional;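 note: rate of fluorescence rise from hydrolysis of a fluorogenic O-methyl fluorescein ester substrate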
T3 sequence (P49327 whole entry, the tested form may be a part): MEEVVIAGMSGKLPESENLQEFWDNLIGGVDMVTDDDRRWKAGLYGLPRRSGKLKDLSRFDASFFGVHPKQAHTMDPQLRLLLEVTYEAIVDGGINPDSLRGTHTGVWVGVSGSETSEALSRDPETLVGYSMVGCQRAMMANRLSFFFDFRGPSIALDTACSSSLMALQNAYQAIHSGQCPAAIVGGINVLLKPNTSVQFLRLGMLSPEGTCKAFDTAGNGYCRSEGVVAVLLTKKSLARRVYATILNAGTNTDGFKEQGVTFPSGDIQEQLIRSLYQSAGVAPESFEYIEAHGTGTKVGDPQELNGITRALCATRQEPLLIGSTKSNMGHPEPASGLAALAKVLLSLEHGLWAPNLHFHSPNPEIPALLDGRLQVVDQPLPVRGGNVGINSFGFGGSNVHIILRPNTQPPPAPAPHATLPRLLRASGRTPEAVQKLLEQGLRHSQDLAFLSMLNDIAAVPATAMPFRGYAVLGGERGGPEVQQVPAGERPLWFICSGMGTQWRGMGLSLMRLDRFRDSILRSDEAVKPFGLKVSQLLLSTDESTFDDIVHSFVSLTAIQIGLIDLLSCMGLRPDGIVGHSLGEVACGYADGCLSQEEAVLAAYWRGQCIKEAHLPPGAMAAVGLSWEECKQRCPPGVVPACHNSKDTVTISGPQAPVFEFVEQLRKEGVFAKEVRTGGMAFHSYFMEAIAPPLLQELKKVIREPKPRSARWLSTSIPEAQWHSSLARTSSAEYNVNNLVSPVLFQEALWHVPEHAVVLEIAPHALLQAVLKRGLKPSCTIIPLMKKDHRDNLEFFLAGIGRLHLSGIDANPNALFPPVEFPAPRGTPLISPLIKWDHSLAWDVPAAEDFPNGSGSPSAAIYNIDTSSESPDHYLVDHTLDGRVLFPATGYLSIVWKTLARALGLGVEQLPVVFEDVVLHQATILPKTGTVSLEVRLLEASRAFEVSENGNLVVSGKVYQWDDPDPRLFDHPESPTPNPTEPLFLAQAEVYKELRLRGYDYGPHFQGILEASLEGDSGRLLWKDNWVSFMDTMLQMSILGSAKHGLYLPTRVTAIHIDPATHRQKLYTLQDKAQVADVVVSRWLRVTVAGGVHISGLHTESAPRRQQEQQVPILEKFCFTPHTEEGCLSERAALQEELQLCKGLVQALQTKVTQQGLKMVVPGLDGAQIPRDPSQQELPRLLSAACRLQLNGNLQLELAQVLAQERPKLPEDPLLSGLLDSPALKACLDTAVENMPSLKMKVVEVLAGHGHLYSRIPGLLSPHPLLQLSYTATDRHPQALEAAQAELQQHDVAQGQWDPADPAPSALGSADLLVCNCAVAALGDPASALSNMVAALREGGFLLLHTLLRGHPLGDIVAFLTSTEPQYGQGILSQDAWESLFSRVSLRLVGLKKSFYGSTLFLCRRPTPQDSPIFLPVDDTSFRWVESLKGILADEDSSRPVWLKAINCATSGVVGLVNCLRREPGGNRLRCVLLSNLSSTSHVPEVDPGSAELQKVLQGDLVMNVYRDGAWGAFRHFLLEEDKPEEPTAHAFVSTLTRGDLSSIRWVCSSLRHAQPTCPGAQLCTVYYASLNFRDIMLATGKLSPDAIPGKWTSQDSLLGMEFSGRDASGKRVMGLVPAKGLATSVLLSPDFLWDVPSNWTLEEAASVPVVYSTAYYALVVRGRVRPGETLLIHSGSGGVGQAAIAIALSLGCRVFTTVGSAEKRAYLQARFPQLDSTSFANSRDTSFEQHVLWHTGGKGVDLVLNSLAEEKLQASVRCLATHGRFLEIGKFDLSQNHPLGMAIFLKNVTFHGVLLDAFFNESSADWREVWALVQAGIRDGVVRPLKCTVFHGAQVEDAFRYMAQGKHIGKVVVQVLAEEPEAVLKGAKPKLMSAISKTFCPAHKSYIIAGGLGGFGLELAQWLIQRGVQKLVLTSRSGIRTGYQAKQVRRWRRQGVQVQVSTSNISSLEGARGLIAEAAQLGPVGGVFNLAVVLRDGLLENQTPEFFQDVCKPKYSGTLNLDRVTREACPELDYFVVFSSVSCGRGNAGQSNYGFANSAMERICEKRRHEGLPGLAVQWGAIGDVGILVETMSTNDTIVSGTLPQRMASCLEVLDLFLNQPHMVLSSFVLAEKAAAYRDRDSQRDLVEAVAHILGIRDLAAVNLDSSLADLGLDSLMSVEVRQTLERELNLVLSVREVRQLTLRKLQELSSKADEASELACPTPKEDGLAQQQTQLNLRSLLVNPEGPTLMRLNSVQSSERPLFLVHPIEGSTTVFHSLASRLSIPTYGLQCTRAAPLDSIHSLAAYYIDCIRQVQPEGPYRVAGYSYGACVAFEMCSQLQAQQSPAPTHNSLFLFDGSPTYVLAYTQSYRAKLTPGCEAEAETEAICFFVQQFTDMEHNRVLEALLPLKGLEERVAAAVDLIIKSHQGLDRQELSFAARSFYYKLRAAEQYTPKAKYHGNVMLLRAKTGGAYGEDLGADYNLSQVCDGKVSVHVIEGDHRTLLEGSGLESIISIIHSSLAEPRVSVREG

[4] = target: T3, Fatty acid synthase; test: FAS thioesterase domain inhibitors, dose response, biochemical, endpoint fluorescence intensity, uHTS hits (AID 624327); format: functional;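 note: fluorescence from hydrolysis of an O-methyl fluorescein acyl ester substrate by the enzyme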
[5] = tested on: HEK293; test: inhibitors of LMP1-driven NF-kB reporter, dose response, cell-based, HEK293, luciferase, cherry-pick (AID 588343); format: functional; details: Homo sapiens
[6] = target: Luciferin 4-monooxygenase (Photinus pyralis, UniProt P08659); test: firefly luciferase enzyme inhibitors, dose response, biochemical, luminescence (AID 1891)
Chain of Luciferin 4-monooxygenase (P08659 whole entry): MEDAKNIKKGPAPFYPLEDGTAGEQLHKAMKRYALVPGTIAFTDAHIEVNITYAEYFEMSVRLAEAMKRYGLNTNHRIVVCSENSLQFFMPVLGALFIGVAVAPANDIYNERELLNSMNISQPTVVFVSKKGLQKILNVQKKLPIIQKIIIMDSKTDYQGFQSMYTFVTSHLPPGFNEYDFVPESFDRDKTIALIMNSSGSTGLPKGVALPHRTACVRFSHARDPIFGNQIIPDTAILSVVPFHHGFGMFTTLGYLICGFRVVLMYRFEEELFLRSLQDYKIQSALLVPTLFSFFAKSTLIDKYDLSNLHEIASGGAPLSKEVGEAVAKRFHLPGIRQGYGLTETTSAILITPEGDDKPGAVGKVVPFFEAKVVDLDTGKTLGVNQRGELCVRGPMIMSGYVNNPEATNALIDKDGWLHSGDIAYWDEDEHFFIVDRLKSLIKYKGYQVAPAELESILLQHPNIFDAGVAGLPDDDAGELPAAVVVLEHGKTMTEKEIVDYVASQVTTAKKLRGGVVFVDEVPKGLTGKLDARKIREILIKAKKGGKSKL

[7] = Luminescence Cell-Based Dose Confirmation HTS to Identify Inhibitors of Platelet Dense Granule Release. [Related pubchem assays: 1663 (Primary HTS), 1678 (Summary of Project)]; format: functional
[8] = tested on: H9c2; test: cells; format: functional, cell-based; details: Rattus norvegicus, H9c2, Myocardium;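 note: confirmatory concentration-response retest of ultra-high-throughput screening hits for modulation of myocardial damage; cell death induced by hydrogen peroxide oxidative stress; compound pretreatment for 60 min then peroxide exposure for 2 h; potency is for protecting the cells against peroxide damage rather than for killing them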
[9] = inhibitors of SNCA 5'UTR-driven reporter translation, confirmation, H4 neuroglioma cells, luminescence (AID 1988); format: functional, cell-based
[10] = Luminescence Cell-Based Dose Response HTS to Identify Inhibitors of 5'UTR Stem-Loop Driven Prion Protein mRNA Translation in H4 Neuroglioblastoma Cells. [Related pubchem assays: 1827 (Project Summary), 1813 (Primary HTS)]; format: functional
[11] = MC4R antagonists, dose response, counter-screen for LGR2 antagonist project, cell-based, plate reader, cherry pick (AID 743444); format: functional;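 note: transfected HEK 293 cells stimulated with alpha-MSH peptide; potency of inhibitors of the alpha-MSH evoked signal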
[12] = LGR2 antagonists, dose response, cell-based, HEK293, CRE-luciferase reporter, cherry pick, set 2 (AID 743343); format: functional;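 note: transfected cells were stimulated with diluted bursicon conditioned medium after compound addition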
[13] = target: T4, Protein skinhead-1 (Caenorhabditis elegans, UniProt P34707); format: functional
T4 sequence (P34707 whole entry): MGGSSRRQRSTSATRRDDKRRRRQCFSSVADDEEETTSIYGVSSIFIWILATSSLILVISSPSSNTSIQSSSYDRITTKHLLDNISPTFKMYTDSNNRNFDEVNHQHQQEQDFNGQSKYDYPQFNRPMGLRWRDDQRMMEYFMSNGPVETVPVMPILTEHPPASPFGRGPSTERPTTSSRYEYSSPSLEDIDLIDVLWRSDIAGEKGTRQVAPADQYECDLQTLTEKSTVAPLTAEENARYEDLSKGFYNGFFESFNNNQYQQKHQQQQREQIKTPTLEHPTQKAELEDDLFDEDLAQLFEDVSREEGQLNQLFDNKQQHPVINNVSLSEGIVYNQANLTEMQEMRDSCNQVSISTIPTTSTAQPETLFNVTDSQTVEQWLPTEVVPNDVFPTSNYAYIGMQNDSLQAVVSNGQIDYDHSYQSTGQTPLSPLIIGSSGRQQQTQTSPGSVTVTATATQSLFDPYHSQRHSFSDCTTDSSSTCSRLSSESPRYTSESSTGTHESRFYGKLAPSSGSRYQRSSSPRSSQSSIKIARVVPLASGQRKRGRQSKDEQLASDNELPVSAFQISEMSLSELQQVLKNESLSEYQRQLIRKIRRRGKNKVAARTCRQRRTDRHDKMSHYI

[14] = inhibitors of firefly luciferase expression or activity, dose response, H4 neuroglioma cells, luminescence (AID 1990); format: functional, cell-based
[15] = target: T5, Calpain-2 catalytic subunit (Sus scrofa, UniProt P43367); test: pig calpain II inhibitor potency, dose response, biochemical, fluorogenic peptide substrate (AID 1420); format: functional
T5 sequence (P43367 whole entry): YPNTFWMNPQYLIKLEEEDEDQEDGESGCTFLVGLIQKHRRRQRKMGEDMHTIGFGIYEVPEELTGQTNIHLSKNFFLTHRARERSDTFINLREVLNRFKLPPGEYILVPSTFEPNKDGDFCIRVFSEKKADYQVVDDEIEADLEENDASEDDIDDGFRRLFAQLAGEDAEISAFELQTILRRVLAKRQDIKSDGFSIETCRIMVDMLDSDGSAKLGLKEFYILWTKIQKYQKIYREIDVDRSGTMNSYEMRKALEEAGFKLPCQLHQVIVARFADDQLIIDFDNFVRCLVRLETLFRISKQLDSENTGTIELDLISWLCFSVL

[16] = target: FAD-linked sulfhydryl oxidase ALR (Homo sapiens, UniProt P55789); test: inhibitors of human ALR sulfhydryl oxidase, dose response, biochemical, H2O2 detection, luminescence, cherry-pick (AID 493248)
Chain of FAD-linked sulfhydryl oxidase ALR (P55789 whole entry): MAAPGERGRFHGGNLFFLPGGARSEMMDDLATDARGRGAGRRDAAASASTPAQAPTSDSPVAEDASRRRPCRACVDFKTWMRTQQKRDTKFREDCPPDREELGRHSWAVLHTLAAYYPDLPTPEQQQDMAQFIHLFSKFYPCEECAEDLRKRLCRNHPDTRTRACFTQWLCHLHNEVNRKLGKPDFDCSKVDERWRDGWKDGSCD

[17] = target: T6, Corticotropin-releasing factor receptor 2/Corticotropin-releasing factor-binding protein (Homo sapiens, UniProt P24387+Q13324); test: activators of CRF receptor 2 with binding protein – uHTS hits, confirmation (AID 602473); format: functional; details: read-out: EC50_Mean
T6 sequence (Q13324 whole entry): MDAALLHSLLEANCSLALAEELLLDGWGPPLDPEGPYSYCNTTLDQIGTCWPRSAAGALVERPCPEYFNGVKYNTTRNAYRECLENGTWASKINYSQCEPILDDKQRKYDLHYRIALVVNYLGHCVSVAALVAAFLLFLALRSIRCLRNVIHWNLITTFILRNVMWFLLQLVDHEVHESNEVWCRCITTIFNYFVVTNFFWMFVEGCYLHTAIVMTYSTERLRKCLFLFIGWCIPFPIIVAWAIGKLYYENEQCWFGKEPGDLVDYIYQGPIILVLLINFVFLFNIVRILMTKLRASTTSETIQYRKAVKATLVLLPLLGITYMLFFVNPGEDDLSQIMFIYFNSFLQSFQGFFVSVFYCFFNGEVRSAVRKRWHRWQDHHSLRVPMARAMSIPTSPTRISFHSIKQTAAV
T6 sequence (P24387 whole entry): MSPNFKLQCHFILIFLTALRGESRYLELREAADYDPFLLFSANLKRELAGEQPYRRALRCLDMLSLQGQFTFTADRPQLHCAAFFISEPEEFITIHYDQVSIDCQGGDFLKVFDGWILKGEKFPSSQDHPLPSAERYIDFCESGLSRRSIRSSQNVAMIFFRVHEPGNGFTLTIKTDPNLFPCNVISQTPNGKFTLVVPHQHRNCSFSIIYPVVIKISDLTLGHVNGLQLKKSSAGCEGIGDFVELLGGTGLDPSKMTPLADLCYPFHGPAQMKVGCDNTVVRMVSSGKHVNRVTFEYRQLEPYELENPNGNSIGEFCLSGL

[18] = NIH:OVCAR-3 ovarian cancer cell cytotoxicity, dose response, PAX8 inhibitor project, plate reader, dry powder samples (AID 743044); format: functional, cell-based
[19] = target: Paired box protein Pax-8 (Homo sapiens, UniProt Q06710); test: inhibitors of PAX8-driven TPO luciferase reporter, dose response, RMG-I cells, cherry-pick (AID 687027); format: functional, cell-based;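 note: luciferase reporter driven by Pax8 target thyroperoxidase promoter measured by SteadyGlo luminescence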
Chain of Paired box protein Pax-8 (Q06710 whole entry): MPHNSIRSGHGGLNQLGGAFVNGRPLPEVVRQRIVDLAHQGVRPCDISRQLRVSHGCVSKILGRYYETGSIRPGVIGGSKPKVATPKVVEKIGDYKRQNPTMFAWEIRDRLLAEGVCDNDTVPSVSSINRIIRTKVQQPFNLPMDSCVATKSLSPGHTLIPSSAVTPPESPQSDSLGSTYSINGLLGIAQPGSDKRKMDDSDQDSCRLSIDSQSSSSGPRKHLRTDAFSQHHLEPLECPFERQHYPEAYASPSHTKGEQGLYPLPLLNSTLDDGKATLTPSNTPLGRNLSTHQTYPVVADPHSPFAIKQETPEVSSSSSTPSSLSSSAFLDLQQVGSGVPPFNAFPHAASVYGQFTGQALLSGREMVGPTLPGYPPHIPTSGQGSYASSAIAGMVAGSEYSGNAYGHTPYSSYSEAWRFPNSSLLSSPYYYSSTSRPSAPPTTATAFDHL

COC(=O)c1c(NC(=O)c2ccc(Br)s2)sc2c1CCC2
IC50 [1]: 44.4 µM (active)

O=C1c2cc(Cl)ccc2OC2(CCNCC2)C12CC(c1ccc(Cl)cc1)=NO2 (centres undefined)
IC50 [2]: > 20 µM (inactive)

O=C(CCNc1ccc(Br)cc1)c1cccc([N+](=O)[O-])c1
IC50 [3]: 7.64 µM (active)
IC50 [4]: 13.3 µM (active)

COc1ccc(C(=O)OC(C)C(=O)NC(C)CCc2ccccc2)cc1[N+](=O)[O-] (centres undefined)
IC50 [3]: 17.9 µM (active)
IC50 [4]: 19.1 µM (active)

O=C(NCc1ccc2c3c(cccc13)C(=O)N2)c1cccs1
IC50 [1]: > 50 µM (inactive)

Cc1c(NC(=O)c2ccc(Br)o2)cccc1C(=O)O
IC50 [1]: > 50 µM (inactive)

COc1ccc(Nc2oc(COc3ccc(Cl)cc3)nc2C#N)cc1
AC50 [5]: 4.08 µM (active)

Cc1ccccc1Cn1cnc2c(NS(C)(=O)=O)c(C)c(C)cc21
IC50 [1]: > 50 µM (inactive)

COC(=O)c1sc(NC(=O)c2ccc(OC)cc2OC)nc1C
EC50 [6]: 0.251 µM (active)
EC50 [7]: 0.749 µM (active)
AC50 [5]: 0.545 µM (active)

CNC(=O)COC(=O)/C=C/c1cn(-c2ccccc2)nc1-c1ccc(C)o1
IC50 [8]: > 79 µM (inactive)
IC50 [2]: > 20 µM (inactive)

COc1cc(SC)ccc1C(=O)Nc1ccc(Cl)cn1
EC50 [9]: 0.497 µM (active)
EC50 [10]: 1.33 µM (active)
AC50 [11]: 1.45 µM (active)
AC50 [12]: 1.59 µM (active)
IC50 [13]: > 100 µM (inactive)
EC50 [14]: 4.03 µM (inconclusive)

CCc1nc2ccccc2c(C(=O)OCCN2C(=O)c3ccccc3C2=O)c1C
IC50 [2]: > 20 µM (inactive)

CCn1cc(C(=O)NCc2cccnc2)c(=O)c2cc(F)c(N3CCN(C(=O)c4ccco4)CC3)cc21
IC50 [1]: > 50 µM (inactive)

O=C(COC(=O)c1cc([N+](=O)[O-])ccc1N1CCOCC1)NCc1ccc(F)cc1
IC50 [3]: 1.33 µM (active)
IC50 [4]: 1.44 µM (active)

Cc1noc(C)c1CSc1nc2ccccc2c(=O)n1-c1ccc(F)cc1F
IC50 [1]: > 50 µM (inactive)
IC50 [15]: 4.76 µM (not active)

Cc1c(Br)c([N+](=O)[O-])nn1CCCC(=O)N1CCN(c2ccccc2)CC1
IC50 [3]: 13.1 µM (active)
IC50 [4]: 11.6 µM (active)

N#CC1(NC(=O)COC(=O)c2cc([N+](=O)[O-])ccc2N2CCOCC2)CCCCC1
IC50 [3]: 2.59 µM (active)
IC50 [4]: 3.79 µM (active)

Cc1ccnc(NC(=O)c2sc3ccccc3c2Cl)c1
AC50 [5]: 1.46 µM (active)

COc1ccc(N2CCCn3c2nc2c3c(=O)n(Cc3ccc(C)cc3)c(=O)n2C)c(OC)c1
IC50 [1]: > 50 µM (inactive)

[O-][S+](NC1CCCCC1)C12CC3CC(CC(C3)C1)C2 (centres undefined)
IC50 [1]: > 50 µM (inactive)

O=C(Cn1nc(-c2ccco2)ccc1=O)Nc1ccc(Cl)c(Cl)c1
IC50 [3]: 12.4 µM (active)
IC50 [4]: 13.1 µM (active)

O=C(Oc1ccc2c(=O)c(Cl)coc2c1)c1ccncc1
IC50 [1]: 18 µM (active)

CC(C)(C)c1ccc(Oc2ccc(NC(=O)CCCC(=O)O)cn2)cc1
IC50 [1]: > 50 µM (inactive)
AC50 [16]: 1.49 µM (active)

O=C(O)CCN1C(=O)C2C3c4ccccc4C(c4ccccc43)[C@@H]2C1=O (some centres undefined)
IC50 [1]: > 50 µM (inactive)

C#CCOCCOCCOCCNc1nc(N2CCN(C(=O)[C@H](CCCN=C(N)N)n3cc(C(N)[C@@H](C)CC)nn3)CC2)nc(N2CCN(C(=O)[C@H](CCCCN)n3cc([C@@H](N)CC(N)=O)nn3)CC2)n1 (some centres undefined)
IC50 [2]: > 20 µM (inactive)

CCOC(=O)C1CCN(C(=O)c2ccc3c(=O)n4nc(Nc5ccccc5OC)sc4nc3c2)CC1
IC50 [3]: 11.8 µM (active)
IC50 [4]: 12.4 µM (active)
IC50 [8]: > 79 µM (inactive)

O=C(C[C@H]1C[C@H](C(=O)N2CCOCC2)[C@@]2(CCC3CCCC3)c3[nH]c4ccc(Cl)cc4c3CCN2C1=O)NCCN1CCOCC1
IC50 [3]: 2.26 µM (active)
IC50 [4]: 2.04 µM (active)
EC50 [17]: > 53 µM (inactive)

CC(C)(C)c1ccc(C(=O)N2CCC2(C)C(=O)NS(=O)(=O)c2ccc(C#N)cc2)cc1 (centres undefined)
IC50 [3]: 8.79 µM (active)
IC50 [4]: 9.51 µM (active)

OC1CCC(Nc2ccn3nc(-c4cccc(OCc5ccccc5)c4)cc3n2)CC1 (centres undefined)
AC50 [11]: 37.1 µM (active)
AC50 [12]: 34.3 µM (active)

COc1ccc2c3c(n(C)c2c1)[C@@H](CO)N(C(=O)Nc1ccc(F)cc1)CC31CCN(S(=O)(=O)c2cccc(C)c2)CC1
AC50 [18]: 64 µM (active)
AC50 [19]: 5.97 µM (active)

O=C(C[C@@H]1C[C@@H]2c3cc(NC(=O)Cc4ccncc4)ccc3O[C@@H]2[C@H](CO)O1)NCc1ccc(-c2ccccc2)cc1
AC50 [18]: 37.8 µM (active)
AC50 [19]: 13.3 µM (active)

C[C@H]1CN([C@@H](C)CO)C(=O)Cc2cc(NC(=O)NC3CCCCC3)ccc2O[C@H]1CN(C)S(=O)(=O)c1ccc(Cl)cc1
AC50 [18]: 13.5 µM (active)
AC50 [19]: 11.9 µM (active)

CO/N=C/c1ccc(Sc2ccccc2N)c([N+](=O)[O-])c1
IC50 [1]: > 50 µM (inactive)
IC50 [15]: 9.01 µM (not active)

Reference: ChEMBL document CHEMBL1201862, “PubChem BioAssay data set” (2004)
